Literature values as cited in PMC3635145 (Journal of medicinal chemistry, 2013).

Molecular target: T1, TbrPDEB1 (Trypanosoma brucei, UniProt Q8WQX9)
T1 sequence (Q8WQX9 1-930): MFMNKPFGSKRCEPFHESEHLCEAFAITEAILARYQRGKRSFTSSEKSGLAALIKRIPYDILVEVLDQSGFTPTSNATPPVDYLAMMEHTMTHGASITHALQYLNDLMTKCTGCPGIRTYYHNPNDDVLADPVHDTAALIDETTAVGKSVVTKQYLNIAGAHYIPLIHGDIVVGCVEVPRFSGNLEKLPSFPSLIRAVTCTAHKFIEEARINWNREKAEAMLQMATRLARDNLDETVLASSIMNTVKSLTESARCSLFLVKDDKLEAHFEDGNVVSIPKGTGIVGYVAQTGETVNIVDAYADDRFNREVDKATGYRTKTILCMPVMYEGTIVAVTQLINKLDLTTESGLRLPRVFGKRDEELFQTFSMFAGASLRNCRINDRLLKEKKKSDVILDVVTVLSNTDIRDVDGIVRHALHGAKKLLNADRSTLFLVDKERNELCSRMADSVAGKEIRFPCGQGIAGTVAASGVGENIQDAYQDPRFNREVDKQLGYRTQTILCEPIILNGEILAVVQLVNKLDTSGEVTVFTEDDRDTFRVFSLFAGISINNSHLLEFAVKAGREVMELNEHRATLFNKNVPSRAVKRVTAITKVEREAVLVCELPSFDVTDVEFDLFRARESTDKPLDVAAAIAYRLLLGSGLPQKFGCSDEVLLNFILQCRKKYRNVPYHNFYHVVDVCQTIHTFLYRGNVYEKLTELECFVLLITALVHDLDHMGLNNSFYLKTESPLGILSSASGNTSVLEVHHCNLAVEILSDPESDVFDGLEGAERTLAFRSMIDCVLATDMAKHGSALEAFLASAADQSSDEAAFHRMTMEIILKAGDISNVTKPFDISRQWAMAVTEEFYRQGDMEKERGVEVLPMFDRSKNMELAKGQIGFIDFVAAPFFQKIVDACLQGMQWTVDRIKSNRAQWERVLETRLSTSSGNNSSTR

Structure (SMILES): COc1ccc(C(=O)CC(C)C)cc1OCCCCO [compound 5, 1-(3-(4-hydroxybutoxy)-4-methoxyphenyl)-3-methylbutan-1-one]
- TbrPDEB1 inhibition (in words): appears to inhibit TbrPDEB1 to some extent
